# Assay results: patent US10822376B2, “Biologically active peptides” (Baxalta Incorporated, priority 2008, dated 2020)
# *1 amine or outer side, *2 acyl side, *3 side chain or, on linkers, in order; H or OH if unused. Where a SMILES comes first, the peptide text is derived from it. Bridges are numbered along the chain shown (N, C = ends). [ ]: non-standard residue; d: D form. The star is where a group is joined. X2 = NCCCC[C@H](N)C(=O)NCCCOCCOCCOCCCN*; Suc = O=C(CCC(=O)[*:2])[*:1]; X3 = CC(=O)NCCCOCCOCCOCCCN*
# Tests used:
# [1] = Plasma stability; details: human
# Procedure: Half-life of compounds in human or mouse plasma, or percentage of compound remaining after an incubation in human or mouse plasma, is determined as follows. In the experimental procedure, test compound concentrations are 5 μM, prepared from test compound stock solutions of 10 mM in DMSO. Propantheline is used as a standard. […] All of the samples are incubated in a water bath at 37° C. […] After a chosen duration of incubation (generally at t=60 min) each sample is mixed with a further 500 μl acetonitrile. The samples are mixed on a vortex mixer for 30 s and placed on ice for 10 min and collected for centrifugation. Samples are centrifuged at 20 000 g for 10 min at 4° C. 500 μl supernatant is transferred into a new 1.5 ml Eppendorf tube and an equal volume of acetonitrile is added. The sample is mixed again for 30 s using a vortex mixer. After a second centrifugation step (20 000 g, 10 min, 4° C.) 250 μl of the supernatant is transferred into HPLC glass vials for HPLC-MS analysis. Conditions for performing HPLC are as follows: Injection-volume is set to 20 μl. Temperature is set to 25° C. A linear gradient from 95:5 to 5:95 water:acetonitrile both containing 0:05% trifluoroacetic acid (TFA) (v/v) is applied at a flow rate of 0.3 ml/min for 10 min. The PDA-detector is scanning from 210-400 nm.
# [2] = physchem; details: for solubility kinetic: pH 7.4
# [3] = tested on: human FVIII inhibited plasma; test: Defined Intrinsic Thrombin Generation Assay (DITGA, triggered by FXIa and phospholipids); assay type: biochemical; details: for Activity in the Defined Intrinsic Thrombin Generation Assay: summary
# Source text: (§1) The intrinsic pathway of thrombin generation may be assayed in a thrombin generation assay by including FXIa and phospholipids. In such an assay, which is similar to an activated partial thromboplastin time (aPTT) test, thrombin generation is solely directed through the intrinsic pathway, and is FVIII dependent. A suitable assay is the Defined Intrinsic Thrombin Generation Assay described below. Alternatively, by employing low concentrations of TF and phospholipids instead of FXIa and phospholipids, thrombin is generated by both the extrinsic (tissue factor) and the intrinsic pathways. This form of the thrombin generation assay is the more physiologic one, as both thrombin generation pathways are involved; it is partially FVIII dependent. A suitable assay is the Defined Dual-Pathway Thrombin Generation Assay.
# The Defined Intrinsic Thrombin Generation Assay is performed as follows. FVIII activity of human plasma is inhibited by incubating (2 hours, 37° C.) 40 μl of human normal plasma with 10 μl heat inactivated anti-human FVIII plasma raised in goat (600 BU/ml, 6 hours incubated at 56° C.). […] Instead of FVIII-inhibited plasma, FVIII inhibitor patient plasma or several depleted plasmas can be used. The micro-plate is immediately put into a GENios Plus (Tecan) or Safire 2 (Tecan) fluorescence reader and the fluorescence signal (ex 340 nm/em 440 nm) is followed kinetically by reading the plate every 21 seconds.
# For calculation of activity equivalent units experiments are performed with dilutions of Factor Eight Inhibitor Bypassing Agent (FEIBA, Baxter AG), Immunate (human FVIII, purified plasma derived) reference standard (Baxter AG) or Recombinate standard (human FVIII, purified recombinant, Baxter AG). A linear fit of the logarithm of FEIBA (FVIII) concentration plotted against thrombin generation time at peak thrombin results in a standard curve. With this curve FEIBA (FVIII) equivalent activity is calculated for a defined peptide concentration. […] Thus, where a concentration of 100 μM is given, the actual concentration in the final assay volume in 40 μM.
# Compounds were screened using the “Defined intrinsic thrombin generation assay” in which thrombin generation was quantified in vitro in FVIII-inhibited human plasma in the presence of Factor XIa and phospholipid vesicles. Further compounds were screened in the above assay, and in the “Defined dual-pathway thrombin generation assay” using tissue factor and phospholipids instead of Factor XIa and phospholipids, as described in the specific description.
# Various concentrations of each peptide were tested in the defined intrinsic thrombin generation assay using human FVIII inhibited plasma.
# [4] = tested on: FVIII inhibited plasma; test: Defined Dual-Pathway Thrombin Generation Assay (DDPTGA, reagent C high), FVIII inhibited plasma; assay type: biochemical, human; details: for Peak IIa FEIBA EU / Peak IIa FVIIa EU / Peak Time FEIBA EU / Peak Time FVIIa EU: FVIII inhibited plasma
# Source text: as §1
# (§2) Preferably, Reagent C high is used.
# (§3) Tissue factor dependency of peak thrombin generation and thrombin peak time was characterised in a composition containing a fixed concentration of phospholipid (namely 3.2 μM). Phospholipid dependency was characterised in a composition containing a fixed concentration of tissue factor (namely 7.2 μM). Peak time (time to peak thrombin generation) was dependent on the concentration of phospholipid or tissue factor. The final version of this assay is as described in the specific description, in which 10 μl reagent C high containing (32 μM phospholipid and 71.6 μM tissue factor) is used in a total volume of 100 μl.
# (§4) Further studies were conducted using 3.2 μM phospholipid and 7.2 μM tissue factor in FVIII deficient or inhibited plasma, to characterise the effect on peak thrombin generation and thrombin peak time of various coagulation factor preparations. These studies provided a basis from which to compare the efficacy of the compounds in the assay. Briefly, rFVIII (Recombinate® FVIII from Baxter) was tested at 0, 5, 10, 20, 40 and 80 mU/ml in FVIII deficient plasma. FEIBA was tested at 0, 8, 16, 31, 63 and 125 mU/ml in FVIII inhibited plasma. FVIIa was tested at 0, 0.1, 0.4, 1.6, 6.3 and 25 nM in FVIII inhibited plasma. […] Peak thrombin increased and both the lag time and the thrombin peak time decrease.
# [5] = tested on: FVIII deficient plasma; test: Defined Dual-Pathway Thrombin Generation Assay (DDPTGA, reagent C high), FVIII deficient plasma; assay type: biochemical, human; details: FVIII deficient plasma
# Source text: as §1, §2, §3, §4
# [6] = tested on: Factor VIII deficient human plasma; test: DDPTGA (reagent B) in FVIII depleted plasma; assay type: biochemical; details: compounds at 50 μM and 80, 90 or 100 μM; note: key: '+' means stimulates; '−' means does not stimulate
# Source text: as §2
# [7] = tested on: Factor V deficient human plasma; test: DDPTGA (reagent B) in FV depleted plasma; details: compounds at 50 μM and 80, 90 or 100 μM
# Procedure: (§5) The Defined Dual-Pathway Thrombin Generation Assay is performed as described below, using a commercial test kit (Technothrombin TGA, Technoclone GmbH, Vienna, Austria). […] USA) are incubated four minutes at 37° C. Preferably, Reagent C high is used. Thrombin generation is started by the addition of 40 μl of one of several types of human plasma (37° C.). […] By deviating the original fluorescence data the amount of generated thrombin is calculated from a standard curve constructed using a concentration range of thrombin.
# (§6) The in vitro thrombin generation assay based on the cleavage of Z-GGR-AMC to release the fluorophore AMC, described in the specific description, i.e. the Defined Dual-Pathway Thrombin Generation Assay was used to characterise the effect of the compounds in several depleted human plasmas. […] 10 μl peptide dilution, 40 μl TGA substrate and 40 μl plasma were used as described in the specific description.
# (§7) The plasmas used in the experiments were fresh frozen and were deficient in Factor V, Factor VII/VIIa, Factor VIII, Factor X or Factor XI (George King Bio-Medical, Inc.). Residual coagulation factor levels of deficient plasmas were specified as less than 1%.
# (§8) For each depleted plasma used in the experiments, compounds were tested at two concentrations, namely 50 μM and 80, 90 or 100 μM. A negative control was used, in which no test compound was included.
# [8] = tested on: Factor VII/VIIa deficient human plasma; test: DDPTGA (reagent B) in FVII depleted plasma; details: compounds at 50 μM and 80, 90 or 100 μM
# Procedure: as §5, §6, §7, §8
# [9] = tested on: FVIII-inhibited human normal plasma; test: Defined Fibrin Deposition Assay (clotting time); assay type: biochemical
# Procedure: Another suitable assay to determine procoagulant activity, and particularly FVIII equivalent activity or FVIII inhibitor bypassing activity, is the Defined Fibrin Deposition Assay as described below. […] This assay is particularly useful for determining coagulation FVIII activity because it is conducted in the presence of FVIII-depleted or inhibited plasma.
# The Defined Fibrin Deposition Assay is performed as follows. FVIII activity of human citrated plasma (Baxter AG) is first inhibited by incubating (2 hours, 37° C.) 100 μl of human normal plasma with 25 μl heat inactivated anti-human FVIII plasma (300 BU/ml, 6 hours incubated at 56° C.) raised in goat. For each sample to be tested, 125 μl of this FVIII-inhibited human normal plasma is transferred to a pre-warmed cuvette and a 75 μl dilution of a test compound or FEIBA reference standard (Baxter AG) is added. The dilutions of test compound or FEIBA reference standard contain 50 mM imidazole, 100 mM NaCl and 10 mg/ml human serum albumin (Sigma) pH 7.4. As a trigger and for providing procoagulant surfaces 100 μl of a mix of human factor XIa (3.13 nM, Enzyme Research Laboratories) and phospholipid (PL) vesicles (Phosphatidylcholine/Phosphatidylserine 60%/40%, 30 μM; Avanti Polar Lipids) in 50 mM Imidazole, 100 mM NaCl, 10 mg/ml human serum albumin (Sigma) pH 7.4 is included. After incubating for three minutes at 37° C. the coagulation reaction is started by adding 100 μl of 25 mM CaCl2. Clot formation is monitored by a coagulometer (KC10A, Amelung, Germany). In brief, each cuvette rotates slowly above the magnetic detection device and contains a small magnetic metallic ball. Whilst the plasma components remain in solution, the ball sits at the bottom of the cuvette. Over time, a clot begins to form, such that the ball starts to rotate with the developing clot in the rotating cuvette. The “clotting time” is recorded and is defined as the time from addition of the CaCl2) to the time that the developing clot begins to rotate the metallic ball. A standard curve for FEIBA reference standard dilutions is calculated by linear regression of logarithmic FEIBA concentrations (x-axis) against the clotting time (y-axis). Based on the clotting time of each compound concentration FEIBA equivalent activities are calculated according to this standard curve.
# Thus, where a concentration of 100 μM is given, the actual concentration in the final assay volume in 25 μM.
# Various peptides were tested for the ability to stimulate fibrin deposition in the Defined Fibrin Deposition Assay as described in the specific description.
# [10] = tested on: Factor XI deficient human plasma; test: DDPTGA (reagent B) in FXI depleted plasma; details: compounds at 50 μM and 80, 90 or 100 μM
# Procedure: as §5, §6, §7, §8
# [11] = tested on: Factor X deficient human plasma; test: DDPTGA (reagent B) in FX depleted plasma; details: compounds at 50 μM and 80, 90 or 100 μM
# Procedure: as §5, §6, §7, §8
# [12] = tested on: FIX−/− mice; test: Tail clip assay in FIX−/− mice (blood loss, survival); assay type: in vivo, mouse; details: for Survival (%) 2 hours / Survival (%) 4 hours / Survival (%) 24 hours / Survival (%) 48 hours: FIX−/− mice, tail clip
compound,measurement,setting,value
"CSCC[C@H]1NC(=O)[C@@H](Cc2ccc(O)cc2)NC(=O)[C@H](NC(=O)CCC(=O)NCCCOCCOCCOCCCNC(C)=O)CSSC[C@H](C(=O)N[C@H](Cc2ccc(O)cc2)C(=O)N[C@H](CCC(=O)O)C(N)=O)NC(=O)[C@@H](CC(=O)O)NC(=O)[C@@H](Cc2ccc(O)cc2)NC(=O)[C@@H](Cc2c[nH]c3ccccc23)NC(=O)[C@@H](Cc2ccccc2)NC1=O [Peptide B05, Ac-TTDS-(cymfwydc)-ye-NH2] ({X3-Suc}-[dC][dY][dM][dF][dW][dY][dD][dC][dY][dE]-NH2; disulfide 1-8)","remaining at 0.5 h, 5 μM",[1],112%
same,solubility kinetic,[2],174 µM
same,Thrombin peak time given as FEIBA equivalent activity,[3]; peptide 12.5 μM,126 mU/ml
same,Thrombin peak time given as FEIBA equivalent activity,[3]; peptide 25 μM,152 mU/ml
same,Thrombin peak time given as FEIBA equivalent activity,[3]; peptide 50 μM,270 mU/ml
same,Thrombin peak time given as FEIBA equivalent activity,[3]; peptide 100 μM,649 mU/ml
same,Thrombin peak time given as FEIBA equivalent activity,[3]; peptide 200 μM,1089 mU/ml
same,Activity in the Defined Intrinsic Thrombin Generation Assay,[3],possess activity
"CSCC[C@H]1NC(=O)[C@@H](Cc2ccc(O)cc2)NC(=O)[C@H](NC(=O)CCC(=O)NCCCOCCOCCOCCCNC(=O)[C@@H](N)CCCCN)CSSC[C@H](C(=O)N[C@H](Cc2ccc(O)cc2)C(=O)N[C@H](CCC(=O)O)C(N)=O)NC(=O)[C@@H](CC(=O)O)NC(=O)[C@@H](Cc2ccc(O)cc2)NC(=O)[C@@H](Cc2c[nH]c3ccccc23)NC(=O)[C@@H](Cc2ccccc2)NC1=O [Peptide B06, K-TTDS-(cymfwydc)-ye-NH2] ({X2-Suc}-[dC][dY][dM][dF][dW][dY][dD][dC][dY][dE]-NH2; disulfide 1-8)","remaining at 0.5 h, 5 μM",[1],93%
same,solubility kinetic,[2],48 µM
same,solubility,"[2]; pH 7.4, Solubility in PBS pH 7.4",≥ 25 µM
same,Thrombin peak time given as FEIBA equivalent activity,[3]; peptide 12.5 μM,95 mU/ml
same,Thrombin peak time given as FEIBA equivalent activity,[3]; peptide 25 μM,157 mU/ml
same,Thrombin peak time given as FEIBA equivalent activity,[3]; peptide 50 μM,172 mU/ml
same,Thrombin peak time given as FEIBA equivalent activity,[3]; peptide 100 μM,378 mU/ml
same,Thrombin peak time given as FEIBA equivalent activity,[3]; peptide 200 μM,902 mU/ml
same,Activity in the Defined Intrinsic Thrombin Generation Assay,[3],possess activity
Ac-WDLYFEIVW-ttds-E [Peptide A07],Peak IIa FEIBA EU,[4]; peptide 50 μM,BLS (BLS = below lowest standard.)
same,Peak IIa FVIIa EU,[4]; peptide 50 μM,BLS (BLS = below lowest standard.)
same,Peak Time FEIBA EU,[4]; peptide 50 μM,BLS (BLS = below lowest standard.)
same,Peak Time FVIIa EU,[4]; peptide 50 μM,BLS (BLS = below lowest standard.)
same,Peak IIa FEIBA EU,[4]; peptide 100 μM,BLS (BLS = below lowest standard.)
same,Peak IIa FVIIa EU,[4]; peptide 100 μM,0.1 nM
same,Peak Time FEIBA EU,[4]; peptide 100 μM,BLS (BLS = below lowest standard.)
same,Peak Time FVIIa EU,[4]; peptide 100 μM,BLS (BLS = below lowest standard.)
same,Activity in the Defined Dual-Pathway Thrombin Generation Assay,"[4]; summary, FVIII inhibited or deficient plasma",possess activity
same,Peak IIa FVIII EU,[5]; peptide 50 μM,BLS (BLS = below lowest standard.)
same,Peak Time FVIII EU,[5]; peptide 50 μM,BLS (BLS = below lowest standard.)
same,Peak IIa FVIII EU,[5]; peptide 100 μM,BLS (BLS = below lowest standard.)
same,Peak Time FVIII EU,[5]; peptide 100 μM,BLS (BLS = below lowest standard.)
same,Stimulation of thrombin generation,[6],+
same,Stimulation of thrombin generation,[7],−
same,Stimulation of thrombin generation,[8],+
same,Thrombin peak time given as FEIBA equivalent activity,[3]; peptide 6.25 μM,415 mU/ml
same,Thrombin peak time given as FEIBA equivalent activity,[3]; peptide 12.5 μM,585 mU/ml
same,Thrombin peak time given as FEIBA equivalent activity,[3]; peptide 25 μM,750 mU/ml
same,Thrombin peak time given as FEIBA equivalent activity,[3]; peptide 50 μM,965 mU/ml
same,Thrombin peak time given as FEIBA equivalent activity,[3]; peptide 100 μM,1129 mU/ml
same,Activity in the Defined Intrinsic Thrombin Generation Assay,[3],possess activity
same,FEIBA EU (from clotting time),[9]; compound 12.5 μM,268 mU/ml
same,FEIBA EU (from clotting time),[9]; compound 25 μM,246 mU/ml
same,FEIBA EU (from clotting time),[9]; compound 50 μM,199 mU/ml
same,Activity in the Defined Fibrin Deposition Assay,[9]; summary,possess activity
same,Stimulation of thrombin generation,[10],+
same,Stimulation of thrombin generation,[11],+
Immunine: purified plasma FIX preparation (Baxter AG. Austria),Blood loss over the 62 minutes after tail clip,"[12]; 50, 100 or 200 U/kg i.v.",dose-dependent reduction
same,Bleeding parameters and survival,[12]; 50-200 U/kg,dose dependently improves
same,Survival (%) 2 hours,[12]; 50 U/kg i.v.,94%
same,Survival (%) 4 hours,[12]; 50 U/kg i.v.,69%
same,Survival (%) 24 hours,[12]; 50 U/kg i.v.,63%
same,Survival (%) 48 hours,[12]; 50 U/kg i.v.,63%
same,Survival (%) 2 hours,[12]; 100 U/kg i.v.,100%
same,Survival (%) 4 hours,[12]; 100 U/kg i.v.,100%
same,Survival (%) 24 hours,[12]; 100 U/kg i.v.,94%
same,Survival (%) 48 hours,[12]; 100 U/kg i.v.,94%
same,Survival (%) 2 hours,[12]; 200 U/kg i.v.,100%
same,Survival (%) 4 hours,[12]; 200 U/kg i.v.,100%
same,Survival (%) 24 hours,[12]; 200 U/kg i.v.,100%
same,Survival (%) 48 hours,[12]; 200 U/kg i.v.,100%
